# Experimental data as given in patent publication US20090187040A1, “FENOFIBRIC ACID POLYMORPHS; METHODS OF MAKING; AND METHODS OF USE THEREOF” (priority 2008, published 2009).
# What was measured:
# [1] = cited from earlier work
# [2] = Fenofibric acid polymorph slurry study (form by XRPD or Raman); assay type: physicochemical; settings: for relative thermodynamic stability of the enantiotropically related forms: Form A versus Form B, by temperature
# Procedure: Approximately 30-45 mg in combination of Form B and Form A are weighed to an 8-mL vial outfitted with a stir bar. Solvent (water, toluene, and 1:1 water/IPA, DCM or MeCN) in the amount of 1 mL is added. The samples are sealed with a Teflon cap and parafilm and then placed on a magnetic stirrer at room temperature or 45° C. An aliquot is then sampled after 7 days and 21 days for determination of form by XRPD or Raman (Table 7).
# Solubility in water = assay type: physicochemical; settings: noted in lyophilization example
# [3] = Grinding study of Form B in a ball mill (XRPD); assay type: physicochemical; settings: ground for 30 seconds using a ball mill
# Procedure: Approximately 50 mg of Form B is ground for 30 seconds using a ball mill and the resulting material is analyzed by XRPD.
smiles,measurement,setting,value
"CC(C)OC(=O)C(C)(C)Oc1ccc(C(=O)c2ccc(Cl)cc2)cc1 [Fenofibrate, 2-[4-(4-chlorobenzoyl)phenoxy]-2-methyl-propanoic acid, 1-methylethyl ester]",effect on high-density lipoprotein (HDL) and apoproteins apoAI and apoAII,[1]; treatment with fenofibrate,results in increases
"CC(C)(Oc1ccc(C(=O)c2ccc(Cl)cc2)cc1)C(=O)O [Fenofibric acid, 2-[4-(4-chlorobenzoyl)phenoxy]-2-methyl-propanoic acid]","effect on total cholesterol, LDL cholesterol, apolipoprotein B, total triglycerides and triglyceride rich lipoprotein (VLDL)",[1]; treated patients,produces reductions
"CC(C)(Oc1ccc(C(=O)c2ccc(Cl)cc2)cc1)C(=O)O [Form A + B, 2-[4-(4-chlorobenzoyl)phenoxy]-2-methyl-propanoic acid]","Form, 21 Days (XRPD/Raman)","[2]; slurry in Toluene 1 mL, 45 °C",A + B
same,"Form, 7 Days (XRPD/Raman)","[2]; slurry in Water 1 mL, RT",A + B
"CC(C)(Oc1ccc(C(=O)c2ccc(Cl)cc2)cc1)C(=O)O [Form A, 2-[4-(4-chlorobenzoyl)phenoxy]-2-methyl-propanoic acid]",relative thermodynamic stability of the enantiotropically related forms,[2],"more stable at elevated temperatures (e.g., above about 45° C.)"
same,"Form, 7 Days (XRPD/Raman)","[2]; slurry in DCM 1 mL, 45 °C",A + B
same,"Form, 21 Days (XRPD/Raman)","[2]; slurry in DCM 1 mL, 45 °C",A + B
same,"Form, 21 Days (XRPD/Raman)","[2]; slurry in Water 1 mL, RT",Diffuse
same,solubility in water,Solubility in water,limited solubility
"CC(C)(Oc1ccc(C(=O)c2ccc(Cl)cc2)cc1)C(=O)O [Form B, 2-[4-(4-chlorobenzoyl)phenoxy]-2-methyl-propanoic acid]",relative thermodynamic stability of the enantiotropically related forms,[2],"more thermodynamically stable at lower temperatures (e.g., room temperature)"
same,"Form, 7 Days (XRPD/Raman)","[2]; slurry in DCM 1 mL, 45 °C",A + B
same,"Form, 21 Days (XRPD/Raman)","[2]; slurry in DCM 1 mL, 45 °C",A + B
same,form observed after grinding (XRPD),[3],Form A is observed
